Measurements as given in patent publication US20100087392A1 (Pierre Fabre Medicament, priority 2007, published 2010).

Experiment: in vivo
Conditions: rat, po, 20 mg/kg
Protocol: Chromatographic Conditions: • Column: Synergi Fusion-RP 80, 2×50 mm, 4 microns
Mobile Phase: • Channel A: 13.3 mM ammonium formate/6.7 mM formic acid in water • Channel B: 6 mM ammonium formate/3 mM formic acid in water/acetonitrile (1/9, v/v)
• Plot of the curve/obtaining the plasma profile=plasma concentration as a function of the time post administration

Structure (SMILES): CC(C)Cc1ccc(C(C)C(=O)O)cc1 (stereo not drawn) [IBU alone, ibuprofen]
- AUC: 7190 ng·h/mL
- Cmax: 2280 ng/mL
- Tmax: 30 min
